A short description of data set [1]: Delayed dosing of oxaliplatin: tolerability, hematologic and liver toxicities in naive CD-1 mice. To be noted: intravenous, pre-defined.
Experimental: Tolerability studies were performed in naïve (non-tumor-bearing) mice. Three animals were treated per group.
Each drug was administered individually, or in combination. […] A single administration of each drug was given. Mouse body weights were measured daily for up to 2 weeks post-treatment.
Measurement of hematologic and liver toxicities: At the end of study, terminal bleeds were performed for each mouse via cardiac puncture. Hematologic function (blood cell count) was measured by Hemavet (Drew Scientific, Miami Lakes, Fla.), according to manufacturer's protocol. Liver function (enzyme levels) was measured by CatalystDx (Idexx Laboratories, Westbrook, Me.) according to the manufacturer's protocol.
Data set [2] has as its system pancreatic cell lines (AsPC-1, BxPC-3, Capan-2, CFPAC-1, and MiaPaCa-2). The experiment in a line: In vitro cell growth inhibition by SN-38 exposure duration in a panel of pancreatic cell lines. To be noted: SN-38 combined with 5-FU or oxaliplatin; prolonged vs short exposure.
A further data set deals with T1, topoisomerase I (Homo sapiens, UniProt P11387).
T1 sequence (P11387 1-765): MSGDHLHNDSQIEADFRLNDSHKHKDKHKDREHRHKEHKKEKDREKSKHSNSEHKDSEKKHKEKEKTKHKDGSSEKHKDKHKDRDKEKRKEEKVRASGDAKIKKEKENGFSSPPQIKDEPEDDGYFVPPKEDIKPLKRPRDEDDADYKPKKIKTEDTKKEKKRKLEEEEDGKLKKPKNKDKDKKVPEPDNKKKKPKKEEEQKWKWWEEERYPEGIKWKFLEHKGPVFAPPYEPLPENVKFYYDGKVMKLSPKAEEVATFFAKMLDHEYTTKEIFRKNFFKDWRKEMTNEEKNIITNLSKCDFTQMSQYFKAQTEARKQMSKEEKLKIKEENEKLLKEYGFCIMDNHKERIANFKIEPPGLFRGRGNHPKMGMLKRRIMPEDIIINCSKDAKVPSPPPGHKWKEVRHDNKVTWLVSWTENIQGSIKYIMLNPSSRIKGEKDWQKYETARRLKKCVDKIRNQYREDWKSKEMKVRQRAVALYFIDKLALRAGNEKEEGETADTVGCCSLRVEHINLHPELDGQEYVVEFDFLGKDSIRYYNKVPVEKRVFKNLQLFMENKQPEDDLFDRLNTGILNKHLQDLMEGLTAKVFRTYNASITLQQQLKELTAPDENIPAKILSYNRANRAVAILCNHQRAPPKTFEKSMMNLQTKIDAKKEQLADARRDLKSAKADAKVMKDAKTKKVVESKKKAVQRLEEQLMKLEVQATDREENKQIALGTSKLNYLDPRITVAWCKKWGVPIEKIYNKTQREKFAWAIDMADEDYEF
To be noted: metabolite formed by nonspecific carboxylesterases; cited from earlier work.

For data set [3] the following is noted: Phase 3 study of the FOLFIRINOX combination; cited from earlier work.
The conditions of data set [4]: cited from earlier work.
For data set [5], the system named is PDX 19015 pancreatic cancer xenograft. The data set can be described thus: Patient-derived xenograft (PDX #19015) pancreatic cancer mouse efficacy model. To be noted: FIG. 6D, relative to the control group. It counts as in vivo.
Experimental: Treatment doses are indicated in the figure beside each treatment, and were given 4 times.
Significance was determined by ordinary 2-way analysis of variance (ANOVA). The regimens were administered on days 0, 7, 14 and 21 of the study.
Female CB.17 SCID mice were obtained from Roswell Park Cancer Institute (Buffalo, N.Y.), initially at 6-8 weeks of age. Per treatment group, 8 animals were treated, unless otherwise indicated. Tumor pieces were derived from donor mice and engrafted subcutaneously.
5-FU was administered intraperitoneally. […] Tolerability: Mouse weights were measured once weekly to monitor treatment tolerability.

Where two headings read alike, the source gives them in different places.

`O=C(O)C(=O)O.[NH-][C@@H]1CCCC[C@H]1[NH-].[Pt+2]` [oxaliplatin]: the maximum tolerated dose in data set [1] came out at 17 mg/kg.

For `CCc1c2c(nc3ccc(O)cc13)-c1cc3c(c(=O)n1C2)COC(=O)[C@]3(O)CC` [SN-38], the cell growth inhibition entry in data set [2] was “prolonged exposure also led to increased cell growth inhibition”. In addition, the “activity relative to irinotecan” value at topoisomerase I is reported as 100-1000 fold.

Take FOLFIRINOX: the “incidence of most common Grade 3-4 adverse events (neutropenia, fatigue, vomiting, diarrhea, thrombocytopenia, sensory neuropathy, anemia, elevated ALT, thromboembolism, febrile neutropenia)” value in data set [3] is more than 5%.

For `CCc1c2c(nc3ccc(OC(=O)N4CCC(N5CCCCC5)CC4)cc13)-c1cc3c(c(=O)n1C2)COC(=O)[C@]3(O)CC` [irinotecan, (S)-4,11-diethyl-3,4,12,14-tetrahydro-4-hydroxy-3,14-dioxo1H-pyrano[3′,4′: 6,7]-indolizino[1,2-b]quinolin-9-yl-[1,4′bipiperidine]-1′-carboxylate], the “incidence of grade 4 neutropenia” value in data set [4] (patients heterozygous for UGT1A1*28 (6/7 genotype), single-agent irinotecan 350 mg/m^2 once every-3-weeks) is listed as 12.5%; in data set [4] (patients homozygous for the UGT1A1*28 allele, single-agent irinotecan 350 mg/m^2 once every-3-weeks), 50%; in data set [4] (patients homozygous for the wild-type allele (UGT1A1 6/6 genotype)) it was “no grade 4 neutropenia was observed”. In addition, the overall survival entry in data set [5] was “No benefit of added 5-FU or oxaliplatin”.

The values are drawn from US11344552B2, “Methods for treating metastatic pancreatic cancer using combination therapies comprising liposomal irinotecan and oxaliplatin” (Ipsen Biopharm Ltd., priority 2015, dated 2022).
